Experimental data: paper PMC8837635, “Structural and functional analyses explain Pea KAI2 receptor diversity and reveal stereoselective catalysis during signal perception” (Communications Biology, 2022)

Key:
AtD14 = molecular target: T1, AtD14 (Arabidopsis thaliana, UniProt Q9SQR3); experiment: hydrolysis by purified protein, UPLC-UV; type: biochemical
T1 construct: gene D14
T1 sequence (Q9SQR3 1-267): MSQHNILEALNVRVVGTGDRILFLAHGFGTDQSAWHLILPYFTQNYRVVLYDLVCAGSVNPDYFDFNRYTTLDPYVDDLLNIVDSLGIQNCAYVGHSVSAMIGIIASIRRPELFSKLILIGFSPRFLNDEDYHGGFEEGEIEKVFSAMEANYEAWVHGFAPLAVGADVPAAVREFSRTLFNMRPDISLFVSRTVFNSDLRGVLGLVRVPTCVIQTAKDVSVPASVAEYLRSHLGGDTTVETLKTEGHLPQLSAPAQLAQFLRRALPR

PsKAI2A = molecular target: T2, PsKAI2A (Lathyrus oleraceus, UniProt A0A9D4YJ13); experiment: intrinsic tryptophan fluorescence Kd; hydrolysis by UPLC; MS covalent adduct; type: binding
T2 construct: gene KIW84_024963; PsKAI2A.2 (272 aa)
T2 sequence (A0A9D4YJ13 1-264 limits assumed): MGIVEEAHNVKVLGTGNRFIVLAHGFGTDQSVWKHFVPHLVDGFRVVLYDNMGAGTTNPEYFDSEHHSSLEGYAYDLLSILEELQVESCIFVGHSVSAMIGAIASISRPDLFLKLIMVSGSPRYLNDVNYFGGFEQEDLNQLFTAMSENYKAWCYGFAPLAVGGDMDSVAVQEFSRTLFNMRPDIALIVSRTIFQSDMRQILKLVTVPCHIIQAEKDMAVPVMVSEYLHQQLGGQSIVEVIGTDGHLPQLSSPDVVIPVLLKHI

PsKAI2B [1] = molecular target: T3, PsKAI2B (Lathyrus oleraceus, UniProt A0A8X6EGX8); experiment: intrinsic tryptophan fluorescence Kd; DSF shift; hydrolysis by UPLC; MS covalent adduct; type: binding
T3 sequence (A0A8X6EGX8 1-270): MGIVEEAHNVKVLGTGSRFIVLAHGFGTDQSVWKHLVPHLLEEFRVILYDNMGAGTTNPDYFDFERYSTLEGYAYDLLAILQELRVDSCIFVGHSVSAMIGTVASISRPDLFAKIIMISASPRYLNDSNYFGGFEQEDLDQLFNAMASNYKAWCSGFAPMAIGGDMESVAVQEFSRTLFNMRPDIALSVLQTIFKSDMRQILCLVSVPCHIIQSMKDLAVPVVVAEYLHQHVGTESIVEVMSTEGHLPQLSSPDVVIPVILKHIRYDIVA

RMS3 = molecular target: T4, RMS3 (Lathyrus oleraceus, UniProt A0A109QYD3); experiment: hydrolysis by purified protein, UPLC-UV; type: biochemical
T4 sequence (A0A109QYD3 1-267): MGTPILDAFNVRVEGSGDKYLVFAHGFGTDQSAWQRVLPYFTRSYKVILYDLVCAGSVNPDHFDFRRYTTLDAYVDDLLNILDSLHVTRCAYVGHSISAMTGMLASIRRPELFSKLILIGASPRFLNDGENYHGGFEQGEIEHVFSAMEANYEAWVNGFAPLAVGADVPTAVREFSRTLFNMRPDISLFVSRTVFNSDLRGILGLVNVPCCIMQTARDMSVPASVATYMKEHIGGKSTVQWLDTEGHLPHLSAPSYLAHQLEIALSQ

PsKAI2B [2] = molecular target: T3, PsKAI2B; experiment: co-crystal structure with (–)-GR24 at […] Å; hydrolysis product trapped in catalytic site; MS +[…] Da adduct on H246; type: binding

SMILES | hydrolysis by purified protein, UPLC-UV (AtD14) | Kd (PsKAI2A) [µM] | Kd (PsKAI2B [1]) [µM] | hydrolysis by purified protein, UPLC-UV (RMS3) | co-crystal structure with (-)-GR24 at 2.0 Å; hydrolysis product trapped in catal (PsKAI2B [2])
CC1=C[C@@H](O/C=C2/C(=O)O[C@H]3c4ccccc4C[C@@H]23)OC1=O [(–)-GR24] | AtD14 and PsRMS3 (Pisum D14) similarly bind and hydrolyze both the isolated (–)- and (+)-GR24 stereoisomers | 115 ± 9.87 | 89.4 ± 12.1 | AtD14 and PsRMS3 (Pisum D14) similarly bind and hydrolyze both the isolated (–)- and (+)-GR24 stereoisomers | 
CC1=CC(O)OC1=O [D-OH, 5-hydroxy-3-methylbutenolide] |  |  |  |  | 5-hydroxy-3-methylbutenolide (D-OH ring), resulting from the (–)-GR24 cleavage, is trapped in the catalytic site
